Results reported in patent EP0021678B1, “1-Sulpho-2-oxoazetidine derivatives, their production and pharmaceutical compositions thereof” (Takeda Chemical Industries, Ltd., priority 1979, dated 1981).
Where two headings read alike, the source gives them in different places.

Tests used:
Experiment in all cases: Anti-bacterial test, minimum inhibitory concentration on agar
Type in all cases: cell-based
[1] = tested on: Acinetobacter calcoaceticus IFO 13006; settings: Acinetobacter calcoaceticus IFO 13006, medium TSA; for MIC: IFO13006, read-out: Minimum inhibitory concentration
Text: (§1) The compound (I) thus obtained is useful as a drug, being active against certain gram-positive and gram-negative bacteria. By way of example, the compounds are active against the following micro-organisms.
(§2) The media and compounds employed in the anti-bacterial test are as follows: • Media: • TSA = Trypticase soy agar • [Baltimore Biologicals (U.S.A.)] • B-TSA = Blood trypticase soy agar • Compounds: • Compound A = Sodium 3-[2-(2-amino-4-thiazolyl)-2-methoxyiminoacetamido]-2-oxo-azetidine-1-sulphonate • Compound B = Sodium 3-[D(-)-N-(4-ethyl-2,3-dioxo-1-piperazinocarbonyl)-phenyl-glycin- amido]-2-oxoazetidine-1-sulphonate • Compound C = Sodium 3-[D(-)-N-(4-ethyl-2,3-dioxo-1-piperazinocarbonyl)phenylglycinamido]-3-methoxy-2-oxoazetidine-1-sulphonate • Compound D = Sodium 3-[2-(4-ethyl-2,3-dioxo-1-piperazinocarboxamido)-2-(2-amino-4-thiazolyl)-acetamido]-2-oxoazetidine-1-sulphonate • Compound E = Sodium 3-[DL-2-(4-ethyl-2,3-dioxo-1-piperazinocarboxamido)-2-thienylacetamido]-2-oxoazetidine-1-sulphonate • Compound F = Sodium 3-[D-2-(4-ethyl-2,3-dioxo-1-piperazinocarboxamido)-2-thienylacetamido]-2-oxoazetidine-1-sulphonate • Compound G = Sodium 3-[D-2-(4-n-octyl-2,3-dioxo-1-piperazinocarboxamido)-2-phenylacetamido]-2-oxoazetidine-1-sulphonate • Compound H = Sodium 3-[2-(4-n-octyl-2,3-dioxo-1-piperazinocarboxamido)-2-(2-amino-4-thiazolyl)-acetamido]-2-oxoazetidine-1-sulphonate • Compound I = Sodium 3-[D-2-[(2-oxo-3-furfurylideneaminoimidazolidin-1-yl)-carboxamido]-2-phenylacetamido]-2-oxoazetidine-1-sulphonate • Compound J = Sodium 3-[2-(4-n-octyl-2,3-dioxo-1-piperazinocarboxamido)-2-thienylacetamido]-2-oxoazetidine-1-sulphonate • Compound K = Sodium 3-[D-2-[[2-oxo-3-(thiophen-2-aidoimino)-imidazolidin-1-yl]-carboxamido]-2-phenylacetamido]-2-oxoazetidine-1-sulphonate • Compound L = Sodium 3-[2-[(2-oxo-3-furfurylideneaminoimidazolidin-1-yl)-carboxamido]-2-thienylacetamido]-2-oxoazetidine-1-sulphonate

[2] = tested on: Escherichia coli NIHJ JC—2; settings: Escherichia coli NIHJ JC—2, medium TSA; for MIC: read-out: Minimum inhibitory concentration
Text: as §1, §2

Klebsiella pneumoniae DT = settings: Klebsiella pneumoniae DT, medium TSA; for MIC: read-out: Minimum inhibitory concentration
Text: as §1, §2

[3] = tested on: Staphylococcus aureus 1840; settings: Staphylococcus aureus 1840, medium TSA; for MIC: read-out: Minimum inhibitory concentration
Text: as §1, §2

Escherichia coli T-7 = settings: for MIC: T7, medium TSA
Text: as §1, §2

[4] = tested on: Streptococcus mitis America; settings: Streptococcus mitis America, medium B—TSA; for MIC: read-out: Minimum inhibitory concentration
Text: as §1, §2

[5] = tested on: Proteus mirabilis IFO 3849; settings: Proteus mirabilis IFO 3849, medium TSA; for MIC: IFO3849, read-out: Minimum inhibitory concentration
Text: as §1, §2

[6] = tested on: Corynebacterium diphtheriae Toronto; settings: Corynebacterium diphtheriae Toronto, medium B—TSA; for MIC: read-out: Minimum inhibitory concentration
Text: as §1, §2

[7] = tested on: Streptococcus pyogenes E—14; settings: for MIC: read-out: Minimum inhibitory concentration
Text: as §1, §2

[8] = tested on: Citrobacter freundii IFO 12681; settings: Citrobacter freundii IFO 12681, medium TSA; for MIC: IFO12681, read-out: Minimum inhibitory concentration
Text: as §1, §2

[9] = tested on: Pseudomonas aeruginosa IFO 3455; settings: Pseudomonas aeruginosa IFO 3455, medium TSA; for MIC: IFO3455, read-out: Minimum inhibitory concentration
Text: as §1, §2

[10] = tested on: Proteus vulgaris IFO 3988; settings: Proteus vulgaris IFO 3988, medium TSA; for MIC: IFO3988, read-out: Minimum inhibitory concentration
Text: as §1, §2

[11] = tested on: Streptococcus faecium IFO 3128; settings: Streptococcus faecium IFO 3128, medium B—TSA; for MIC: Enterococcus faecium, IFO3128, read-out: Minimum inhibitory concentration
Text: as §1, §2

[12] = tested on: Proteus morganii IFO 3168; settings: Proteus morganii IFO 3168, medium TSA; for MIC: Morganella morganii, IFO3168, read-out: Minimum inhibitory concentration
Text: as §1, §2

Candida albicans TA = settings: Candida albicans TA, medium TSA; for MIC: read-out: Minimum inhibitory concentration
Text: as §1, §2

[13] = tested on: Streptococcus pneumoniae Type I; settings: for MIC: read-out: Minimum inhibitory concentration
Text: as §1, §2

[14] = tested on: Serratia marcescens IFO 12648; settings: Serratia marcescens IFO 12648, medium TSA; for MIC: IFO12648, read-out: Minimum inhibitory concentration
Text: as §1, §2

[15] = tested on: Streptococcus pyogenes S—8; settings: Streptococcus pyogenes S—8, medium B—TSA; for MIC: read-out: Minimum inhibitory concentration
Text: as §1, §2

[16] = tested on: Bordetella bronchiseptica Sagami; settings: Bordetella bronchiseptica Sagami, medium B—TSA; for MIC: read-out: Minimum inhibitory concentration
Text: as §1, §2

[17] = tested on: Staphylococcus aureus 308A—1; settings: for MIC: read-out: Minimum inhibitory concentration
Text: as §1, §2

Escherichia coli O—111 = settings: medium TSA
Text: as §1, §2

[18] = tested on: Enterobacter cloacae IFO 12937; settings: Enterobacter cloacae IFO 12937, medium TSA; for MIC: IFO12937, read-out: Minimum inhibitory concentration
Text: as §1, §2

[19] = tested on: Pseudomonas aeruginosa U 31; settings: Pseudomonas aeruginosa U 31, medium TSA; for MIC: U31, read-out: Minimum inhibitory concentration
Text: as §1, §2

[20] = tested on: Staphylococcus aureus FDA209P; settings: Staphylococcus aureus FDA209P; for MIC: Staphylococcus aureus, FDA209P, read-out: Minimum inhibitory concentration
Text: as §1, §2

[21] = Streptococcus pyogenes E—14, medium B—TSA
[22] = Streptococcus pneumoniae Type I, medium B—TSA
[23] = Staphylococcus aureus 308A—1, medium TSA

CCN1CCN(C(=O)N[C@H](C(=O)NC2CN(S(=O)(=O)[O-])C2=O)c2cccs2)C(=O)C1=O.[Na+] (stereo partly drawn) [Compound F, Sodium 3-[D-2-(4-ethyl-2,3-dioxo-1-piperazinocarboxamido)-2-thienylacetamido]-2-oxoazetidine-1-sulphonate]
6.25 µg/mL: Minimum inhibitory concentration [9] | Minimum inhibitory concentration [13, 22] | Minimum inhibitory concentration [17, 23] | Minimum inhibitory concentration ([20]; medium B—TSA) | Minimum inhibitory concentration ([20]; medium TSA)
<0.1 µg/mL: Minimum inhibitory concentration [10]
0.78 µg/mL: Minimum inhibitory concentration [2] | Minimum inhibitory concentration [5] | Minimum inhibitory concentration [6]
50 µg/mL: Minimum inhibitory concentration [18]
3.13 µg/mL: Minimum inhibitory concentration [7, 21] | Minimum inhibitory concentration [15]
0.2 µg/mL: Minimum inhibitory concentration (Klebsiella pneumoniae DT) | Minimum inhibitory concentration (Escherichia coli O—111)
1.56 µg/mL: Minimum inhibitory concentration [8] | Minimum inhibitory concentration [14]
>100 µg/mL: Minimum inhibitory concentration (Escherichia coli T-7; medium TSA) | Minimum inhibitory concentration [11] | Minimum inhibitory concentration (Candida albicans TA) | Minimum inhibitory concentration [16] | Minimum inhibitory concentration [19]
12.5 µg/mL: Minimum inhibitory concentration [12]
25 µg/mL: Minimum inhibitory concentration [1] | Minimum inhibitory concentration [3] | Minimum inhibitory concentration [4]

CCCCCCCCN1CCN(C(=O)N[C@@H](C(=O)NC2CN(S(=O)(=O)O)C2=O)c2ccccc2)C(=O)C1=O (stereo partly drawn) [Compound G, Sodium 3-[D-2-(4-n-octyl-2,3-dioxo-1-piperazinocarboxamido)-2-phenylacetamido]-2-oxoazetidine-1-sulphonate]
> 100 µg/mL: MIC (Escherichia coli T-7) | MIC [11] | MIC (Candida albicans TA) | MIC [16]
6.25 µg/mL: MIC [18]
0.78 µg/mL: MIC (Klebsiella pneumoniae DT) | MIC [10] | MIC [17, 23] | MIC (Escherichia coli O—111)
1.56 µg/mL: MIC [7, 21] | MIC [9] | MIC [12] | MIC [14] | MIC [15] | MIC ([20]; medium TSA)
25 µg/mL: MIC [3] | MIC [4] | MIC [6] | MIC [19]
3.13 µg/mL: MIC [1] | MIC [2] | MIC [5] | MIC [8] | MIC [13, 22] | MIC ([20]; medium B—TSA)

CCCCCCCCN1CCN(C(=O)NC(C(=O)NC2CN(S(=O)(=O)O)C2=O)c2csc(N)n2)C(=O)C1=O (stereo not drawn) [Compound H, Sodium 3-[2-(4-n-octyl-2,3-dioxo-1-piperazinocarboxamido)-2-(2-amino-4-thiazolyl)-acetamido]-2-oxoazetidine-1-sulphonate]
0.78 µg/mL: MIC [6]
6.25 µg/mL: MIC [10] | MIC [12] | MIC ([20]; medium TSA)
12.5 µg/mL: MIC [2] | MIC (Klebsiella pneumoniae DT) | MIC [3] | MIC [8] | MIC [9] | MIC [14] | MIC ([20]; medium B—TSA)
> 100 µg/mL: MIC (Escherichia coli T-7) | MIC [11] | MIC (Candida albicans TA) | MIC [16]
25 µg/mL: MIC [4] | MIC [5]
3.13 µg/mL: MIC ([7]; Streptococcus pyogenes) | MIC ([13]; Streptococcus pneumoniae) | MIC ([17]; Staphylococcus aureus) | MIC (Escherichia coli O—111)
50 µg/mL: MIC [1] | MIC [18] | MIC [19]
1.56 µg/mL: MIC [15]
